Source: publication PMC4945996 (Journal of the American Chemical Society, 2016)
Several values for one entry are separate records, joined by “and”; a condition that tells them apart may be missing. Equal entries are not always repeated. Where two headings read alike, the source gives them in different places.

What was measured:
human MIF [1] = target: T1, human MIF (Homo sapiens, UniProt P14174); assay: Competitive fluorescence polarization; format: binding; conditions: for Kd: 0.004 μM tracer B, […] MIF, pH 7.4, Kd from IC50 via eq 1
T1 sequence (P14174 2-115 limits assumed): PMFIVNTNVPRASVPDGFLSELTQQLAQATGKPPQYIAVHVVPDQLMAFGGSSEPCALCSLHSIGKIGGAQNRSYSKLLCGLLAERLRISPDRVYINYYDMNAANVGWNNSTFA

MIF [2] = conditions: covalent inhibitor: result is time-dependent; cited from earlier work
human MIF [3] = target: T1, human MIF; assay: HPP tautomerase assay; format: biochemical; conditions: for Ki: tautomerase inhibition, HPP substrate, pH 6–6.1
MIF [4] = conditions: cited from earlier work
MIF [5] = conditions: DOPA assay; cited from earlier work
MIF binding to CD74 = conditions: blocking binding of MIF to CD74; cited from earlier work

## Ic1cc(-c2ccccc2)ncn1 [4-IPP]
Human MIF [1]
  Kd: 446 nM
Human MIF [1]; FP monitored for 1 h after the 20 min incubation
  time dependence of FP results: time dependent
MIF [2]
  IC50: 4500 nM

## COc1ccc(Oc2cn(-c3ccc(O)c(F)c3)nn2)cc1 [5a]
Human MIF [3]
  Ki: 1900 nM

## O=C(O)c1ccc(Oc2cn(-c3ccc(O)c(F)c3)nn2)cc1 [5b]
Human MIF [3]
  Ki: 1700 nM

## O=C1Oc2cc(O)ccc2CN1C1CCCCC1 [NVS-1]
Human MIF [3]
  Ki: 569 nM
Human MIF [1]
  fold weaker binding (cyclohexyl analogue vs NVS-2): ca. 10 fold
Human MIF [1]; Kd
  Kd: 456 nM

## COc1ccc(N2Cc3ccc(O)cc3OC2=O)cc1 [NVS-2]
MIF [4]; HPP tautomerase assay
  IC50: 20 nM
MIF [4]; previously reported
  IC50: 20 nM
Human MIF [3]
  Ki: ~30 nM and 30 nM
Human MIF [3]; from Ki values
  fold more potent than (R)-ISO-1: roughly 1000 fold
Human MIF [1]
  fold stronger binding than NVS-6: 3 fold
Human MIF [1]; (−2.3RT/HAC) log Kd
  ligand efficiency: 0.50

## O=C1Oc2cc(O)ccc2CN1c1ccc(O)cc1 [NVS-6]
Human MIF [3]
  Ki: 185 nM
Human MIF [1]; Kd
  Kd: 159 nM

## O=c1c(-c2ccc(O)c(O)c2)coc2cc(O)ccc12 [Orita-13]
MIF [5]
  Ki: 38 nM

## COc1cc(-c2ccc(N=Nc3ccc4c(S(=O)(=O)O)cc(S(=O)(=O)O)c(N)c4c3O)c(OC)c2)ccc1N=Nc1ccc2c(S(=O)(=O)O)cc(S(=O)(=O)O)c(N)c2c1O [PSB]
MIF binding to CD74
  IC50: 810 nM
